# Assay results from US11634447B2 (priority 2012, dated 2023).
# System: bacterial strain LF82 binding to the glycoprotein BSA-(Mannose)3
# Experiment: Bacterial Binding Assay (BBA)
# Assay type: cell-based, Escherichia coli
# Conditions: read-out: Bacterial Binding Assay IC50, LF82/Luciferase strain binding to BSA-(Man)3 coated plates, luminescence
# Excerpt: The purpose of the Bacterial Binding Assay (BBA) is to determine the inhibition activity of
# selective FimH antagonists on the bacterial strain LF82 binding to the glycoprotein BSA-(Mannose)3.
# Below is a list of the Materials used to run the BBA are described below. • 1. LB broth: Supplier: Gibco, #10855 • 2. D-PBS: Supplier: Wisent, #311-425-CL • 3. LB agar plates • 4. 96-well black plate (high binding): Supplier: Costar, #3925 • 5. TopSeal™-A adhesive sealing films; Supplier PerkinElmer, #6005185 • 6. Carbonate-bicarbonate buffer pH 9.6 tablets, Supplier: Medicago, #09-8922-24 • 7. Water, Supplier: Gibco, #15230-162 • 8. Bovine serum albumin (BSA): Supplier: Sigma, #A-7888 • 9. (Man)3-BSA (α1-3, α1-6 Mannotriose-BSA, 1 mg), V-Labs, #NGP1336, lot #HGDX37-169-1 • 10. Tween 20: Supplier: Sigma, #P9416 • 11. Bright-Glo Luciferase Assay System: Supplier: Promega, #E2610 • 12. LF82/Luciferase strain: Invasive ability of an Escherichia coli strain isolated from the ileal mucosa of a patient with Crohn ? disease. Boudeau J, Glasser A L, Masseret E, Joly B, Darfeuille-Michaud A, Infect Immun. 1999, 67(9), 4499-509
# Solutions and buffers used to run the BBA are described below. • 1. 0.04M carbonate-bicarbonate buffer (coating buffer) • 2. 40 μg/mL BSA-(Man)3: Dissolve 1 mg of (Man)3-BSA in 25 mL of water. • 3. 4000 μg/mL BSA • 4. 40 μg/mL BSA • 5. 1 μg/mL BSA-(Man)3: 150 μL of 40 μg/mL BSA-(Man)3+5.85 mL of 40 μg/mL BSA • 6. 0.5 μg/mL BSA-(Man)3 in 0.02M carbonate-bicarbonate buffer. • 7. 20 μg/mL BSA in 0.02M carbonate-bicarbonate buffer • 8. Blocking buffer (2% BSA/DPBS): 1 g of BSA in 50 mL D-PBS • 9. 2× binding buffer (0.2% BSA/D-PBS): 5 mL of blocking buffer+45 mL D-PBS. • 10. Washing buffer (D-PBS/0.01% Tween 20): 10 μL of Tween 20 in 100 mL D-PBS. • 11. 1× Bright-Glo Luciferase substrate: Dilute 1:1 the Bright-Glo Luciferase Assay System with D-PBS The experimental protocol to run the BBA is described below.
# Overnight culture of LF82/Luciferase strain: Into two Falcon 50 mL tubes, add 20 mL of LB+20 μL of 50 mg/mL Kanamycin and inoculate with a loop from glycerol stock of the LF82/Luciferase strain. Incubate overnight at 37° C. with no shaking.
# Glycoprotein coating of 96-well plates: Add 100 μL/well of 0.5-2 μg/mL BSA-(Man)3. 20 μg/mL BSA is used as the control background. Seal plate using an adhesive sealing film and incubate overnight at room temperature. Wash the 96-well plate three times with 150 μL/well of D-PBS, add 170 μL/well of blocking solution and incubate 45 min (minimum) at room temperature.
# Preparation of bacterial suspension: Mix the two cultures tubes (40 mL) and perform a 1:10 dilution in LB (900 μl LB+100 μl culture. Measure optical density (OD) of the bacterial cultures. OD1 ˜5×10^8 cells/mL. Centrifuge LF82 culture for 20 min at 3500 rpm at room temperature. Re-suspend bacterial pellet in D-PBS and centrifuge again for 20 min at 3500 rpm. Re-suspend bacterial pellet in D-PBS to obtain a bacterial concentration of 2×10^9 bacteria/mL. Dilute 1/10 in D-PBS to obtain a final bacterial concentration of 2×10^8 bacteria/mL (=107 bacteria/50 μL). Perform 1/10 serial dilutions in LB of each bacterial suspension, plate 10 μL of dilutions on LB agar plates (final dilutions of 10^−7) and incubate overnight at 37° C. and count CFUs to determine the actual bacteria density in the assay.
# Bacterial binding assay: Add 147 μL 2× binding buffer to compound plate (containing 3 μL of compound). After blocking step is performed (at least 45 min), wash plates three times with 200 μL/well of D-PBS. With a 100 μL multichannel manual pipettor, add 50 µL/well of compound diluted in 2× binding buffer. With a 100 μL multichannel manual pipettor, add 50 μL/well of bacterial suspension. Agitate at slow speed for 1 min and incubate 40-75 min at room temperature. Wash 5 times with 150 μL/well of washing buffer and then once with D-PBS. Add 100 μL/well of 1× Bright-Glo Luciferase substrate. […]
row,Compound,IC50
1,"Cc1cccc(C(=O)c2c(C#C[C@H]3O[C@H](CO)[C@@H](O)[C@H](O)[C@@H]3O)ccc3c2C2(CCNCC2)c2cc(C#C[C@H]4O[C@H](CO)[C@@H](O)[C@H](O)[C@@H]4O)ccc2-3)n1 [Compound 239, [2,7-bis[2-[(2R,3S,4R,5S,6R)-3,4,5-trihydroxy-6-(hydroxymethyl)tetrahydropyran-2-yl]ethynyl]spiro[fluorene-9,4piperidine]-1yl]-(6-methyl-2-pyridyl)methanone]",0.35 nM
2,"OC[C@H]1O[C@H](C#Cc2ccc3c(c2)C(CO)(CO)c2cc(C#C[C@H]4O[C@H](CO)[C@@H](O)[C@H](O)[C@@H]4O)ccc2-3)[C@@H](O)[C@@H](O)[C@@H]1O [Compound 217, (2R,3S,4R,5S,6R)-2-[2-[9,9-Bis(hydroxymethyl)-7-[2-[(2R,3S,4R,5S,6R)-3,4,5-trihydroxy-6-(hydroxymethyl)tetrahydropyran-2-yl]ethynyl]fluoren-2-yl]ethynyl]-6-(hydroxymethyl)tetrahydropyran-3,4,5-triol]",20 nM
3,CC1(Cn2c3cc(C#C[C@H]4O[C@H](CO)[C@@H](O)[C@H](O)[C@@H]4O)ccc3c3ccc(C#C[C@H]4O[C@H](CO)[C@@H](O)[C@H](O)[C@@H]4O)cc32)COC1 [Compound 186],0.28 nM
4,"OCCc1cc(C#C[C@H]2O[C@H](CO)[C@@H](O)[C@H](O)[C@@H]2O)ccc1C#C[C@H]1O[C@H](CO)[C@@H](O)[C@H](O)[C@@H]1O [Compound 94, (2R,3S,4R,5S,6R)-2-[2-[3-(2-hydroxyethyl)-4-[2-[(2R,3S,4R,5S,6R)-3,4,5-trihydroxy-6-(hydroxymethyl)tetrahydropyran-2-yl]ethynyl]phenyl]ethynyl]-6-(hydroxymethyl)tetrahydropyran-3,4,5-triol]",20 nM
5,"OC[C@H]1O[C@H](C#Cc2ccc3nc(C#C[C@H]4O[C@H](CO)[C@@H](O)[C@H](O)[C@@H]4O)ncc3c2)[C@@H](O)[C@@H](O)[C@@H]1O [Compound 127, (2R,3S,4R,5S,6R)-2-(hydroxymethyl)-6-[2-[2-[2-[(2R,3S,4R,5S,6R)-3,4,5-trihydroxy-6-(hydroxymethyl)tetrahydropyran-2-yl]ethynyl]quinazolin-6-yl]ethynyl]tetrahydropyran-3,4,5-triol]",43 nM
6,"OC[C@H]1O[C@H](C#Cc2ccc(C#C[C@H]3O[C@H](CO)[C@@H](O)[C@H](O)[C@@H]3O)c(-c3ccccc3)c2)[C@@H](O)[C@@H](O)[C@@H]1O [Compound 77, (2R,3S,4R,5S,6R)-2-(hydroxymethyl)-6-[2-[3-phenyl-4-[2-[(2R,3S,4R,5S,6R)-3,4,5-trihydroxy-6-(hydroxymethyl)tetrahydropyran-2-yl]ethynyl]phenyl]ethynyl]tetrahydropyran-3,4,5-triol]",4 nM
7,"Cc1cc(C#C[C@H]2O[C@H](CO)[C@@H](O)[C@H](O)[C@@H]2O)c(Cl)cc1C#C[C@H]1O[C@H](CO)[C@@H](O)[C@H](O)[C@@H]1O [Compound 90, (2R,3S,4R,5S,6R)-2-[2-[2-chloro-5-methy1-4-[2-[(2R,3S,4R,5S,6R)-3,4,5-trihydroxy-6-(hydroxymethyl)tetrahydropyran-2-yl]ethynyl]phenyl]ethynyl]-6-(hydroxymethyl)tetrahydropyran-3,4,5-triol]",36 nM
8,COc1cc(C#C[C@H]2O[C@H](CO)[C@@H](O)[C@H](O)[C@@H]2O)ccc1C#C[C@H]1O[C@H](CO)[C@@H](O)[C@H](O)[C@@H]1O [Compound 71],28 nM
9,"O=C(O)CCC1(CCO)c2cc(C#C[C@H]3O[C@H](CO)[C@@H](O)[C@H](O)[C@@H]3O)ccc2-c2ccc(C#C[C@H]3O[C@H](CO)[C@@H](O)[C@H](O)[C@@H]3O)cc21 [Compound 219, 3-[9-(2-hydroxyethyl)-2,7-bis[2-[(2R,3S,4R,5S,6R)-3,4,5-trihydroxy-6-(hydroxymethyl)tetrahydropyran-2-yl]ethynyl]fluoren-9-yl]propanoic acid]",3.8 nM
10,"OCCC1(O)c2cc(C#C[C@H]3O[C@H](CO)[C@@H](O)[C@H](O)[C@@H]3O)ccc2-c2ccc(C#C[C@H]3O[C@H](CO)[C@@H](O)[C@H](O)[C@@H]3O)cc21 [Compound 216, (2R,3S,4R,5S,6R)-2-[2-[9-hydroxy-9-(2-hydroxyethyl)-7-[2-[(2R,3S,4R,5S,6R)-3,4,5-trihydroxy-6-(hydroxymethyl)tetrahydropyran-2-yl]ethynyl]fluoren-2-yl]ethynyl]-6-(hydroxymethyl)tetrahydropyran-3,4,5-triol]",9.9 nM
11,OC[C@H]1O[C@H](c2ccc(-c3ccc([C@H]4O[C@H](CO)[C@@H](O)[C@H](O)[C@@H]4O)cc3F)cc2)[C@@H](O)[C@@H](O)[C@@H]1O [Compound 62],67 nM
12,"OC[C@H]1O[C@H](C#Cc2ccc3c(c2)C(=NO)c2cc(C#C[C@H]4O[C@H](CO)[C@@H](O)[C@H](O)[C@@H]4O)ccc2-3)[C@@H](O)[C@@H](O)[C@@H]1O [Compound 163, 2,7-bis[2-[(2R,3S,4R,5S,6R)-3,4,5-trihydroxy-6-(hydroxymethyl)tetrahydropyran-2-yl]ethynyl]fluoren-9-one oxime]",18 nM
13,"CCCC1(O)c2cc(C#C[C@H]3O[C@H](CO)[C@@H](O)[C@H](O)[C@@H]3O)ccc2-c2ccc(C#C[C@H]3O[C@H](CO)[C@@H](O)[C@H](O)[C@@H]3O)cc21 [Compound 168, (2R,3S,4R,5S,6R)-2-(hydroxymethyl)-6-[2-[9-hydroxy-9-propyl-7-[2-[(2R,3S,4R,5S,6R)-3,4,5-trihydroxy-6-(hydroxymethyl)tetrahydropyran-2-yl]ethynyl]fluoren-2-yl]ethynyl]tetrahydropyran-3,4,5-triol]",3.1 nM
14,"OC[C@H]1O[C@H](C#Cc2ccc(C#C[C@H]3O[C@H](CO)[C@@H](O)[C@H](O)[C@@H]3O)c(OCc3ccccc3)c2)[C@@H](O)[C@@H](O)[C@@H]1O [Compound 80, (2R,3S,4R,5S,6R)-2-[2-[3-benzyloxy-4-[2-[(2R,3S,4R,5S,6R)-3,4,5-trihydroxy-6-(hydroxymethyl)tetrahydropyran-2-yl]ethynyl]phenyl]ethynyl]-6-(hydroxymethyl)tetrahydropyran-3,4,5-triol]",11 nM
15,"OC[C@H]1O[C@H](C#Cc2ccc(C#C[C@H]3O[C@H](CO)[C@@H](O)[C@H](O)[C@@H]3O)c3[nH]ncc23)[C@@H](O)[C@@H](O)[C@@H]1O [Compound 171, (2R,3S,4R,5S,6R)-2-(hydroxymethyl)-6-[2-[7-[2-[(2R,3S,4R,5S,6R)-3,4,5-trihydroxy-6-(hydroxymethyl)tetrahydropyran-2-yl]ethynyl]-1H-indazol-4-yl]ethynyl]tetrahydropyran-3,4,5-triol]",13 nM
16,Cc1c(C#C[C@H]2O[C@H](CO)[C@@H](O)[C@H](O)[C@@H]2O)cccc1[C@H]1O[C@H](CO)[C@@H](O)[C@H](O)[C@@H]1O [Compound 148],130 nM
